This is an account of results in patent US20260158102A1, “CYCLIC PEPTIDE DERIVATIVE COMPOSITION FOR TREATING OR PREVENTING NEUROPATHIC PAIN AND/OR INFLAMMATORY PAIN” (DKS Co. Ltd., priority 2022, published 2026).

For the assay, the system named is rat carrageenan-induced paw edema model. Nature of the assay: Mechanical hyperalgesia (Randall-Selitto pain threshold) in rat carrageenan-induced paw edema model. It counts as in vivo. Particulars: for Pain threshold (mmHg) 2 hour: 2 hours after carrageenan inflammation, control 31.6 ± 1.4. The procedure:
On the day before the administration of the phlogistic agent, the pain threshold of each individual by the Randall-Selitto method was measured using an Analgesy meter.
On the day before the use of the phlogistic agent, a required amount of carrageenan (Tokyo Chemical Industry Co., Ltd.) was weighed, ground using an agate mortar and pestle, and suspended while adding physiological saline little by little, thereby preparing a 1 w/v % carrageenan physiological saline solution. After preparation, the solution was stored in a refrigerator and used the next day.
The test substance was intravenously administered, and after 5 minutes, 0.1 mL of a phlogistic agent (1 w/v % carrageenan physiological saline solution) was subcutaneously administered to the right hind paw of the animal to induce inflammation.
2, 3, 4, and 5 hours after inflammation, the pain threshold was measured by the Randall-Selitto method using an Analgesy meter.
Dunnett's multiple comparison test was performed between the control group and the test substance group at each measurement time point.

For `CC[C@@]1(C)Oc2cc(ccc2O)C[C@H](N(C)C)C(=O)N[C@@H](C(C)C)C(=O)N[C@@H]1C(=O)N[C@@H](CCC(=O)O)C(=O)O` [Compound 23], the “Pain threshold (mmHg) 2 hour” value is, setting by setting: (1 mg/kg i.v., mean ± SE, N=7) 31.6 ± 2.2 mmHg; (5 mg/kg i.v., mean ± SE, N=7) 34.9 ± 1.7 mmHg; (25 mg/kg i.v., mean ± SE, N=7) 36.7 ± 2.4 mmHg. Besides, under “1 mg/kg i.v., 4 hours after carrageenan inflammation, mean ± SE, N=7, control 30.3 ± 0.7”, the “Pain threshold (mmHg) 4 hour” value worked out at 34.0 ± 1.3 mmHg. For the same compound, the “Pain threshold (mmHg) 5 hour” value (1 mg/kg i.v., 5 hours after carrageenan inflammation, mean ± SE, N=7, control 28.3 ± 1.9) stood at 30.1 ± 1.0 mmHg. Besides, the “Effect on inflammatory pain (pain threshold by the Randall-Selitto method)” value (rat carrageenan-induced paw edema model, i.v. 1-25 mg/kg, overall conclusion) is given as “suppressing effect on inflammatory pain”.
